Assay results reported in patent US20170050966A1, “INHIBITING THE TRANSIENT RECEPTOR POTENTIAL A1 ION CHANNEL” (HYDRA BIOSCIENCES, INC., priority 2014, published 2017).
In brackets after ≈: the same amount, converted by molar mass.

Experiments:
[1] = Solubility of micronized Compound 2 in McIlvain's citrate-phosphate buffer; type: physicochemical; details: aqueous buffer, thermodynamic from solid, citrate-phosphate buffer pH 2.2 to 8.64, 30 hours, read-out: Solubility of micronized formulation
Description: Solubility of a micronized formulation of Compound 2 was further evaluated using McIlvain's citrate-phosphate buffer recipes (0.2M Na2HPO4 and 0.1M citric acid) from pH 2.2 to 8.64. Samples were agitated for 30 hours and sampled, centrifuged, and analyzed by UPLC.

CYP2D6 = CYP2D6 (Homo sapiens, UniProt P10635); test: in vitro; details: probe Dextromethorphan
Chain of CYP2D6 (P10635 whole entry): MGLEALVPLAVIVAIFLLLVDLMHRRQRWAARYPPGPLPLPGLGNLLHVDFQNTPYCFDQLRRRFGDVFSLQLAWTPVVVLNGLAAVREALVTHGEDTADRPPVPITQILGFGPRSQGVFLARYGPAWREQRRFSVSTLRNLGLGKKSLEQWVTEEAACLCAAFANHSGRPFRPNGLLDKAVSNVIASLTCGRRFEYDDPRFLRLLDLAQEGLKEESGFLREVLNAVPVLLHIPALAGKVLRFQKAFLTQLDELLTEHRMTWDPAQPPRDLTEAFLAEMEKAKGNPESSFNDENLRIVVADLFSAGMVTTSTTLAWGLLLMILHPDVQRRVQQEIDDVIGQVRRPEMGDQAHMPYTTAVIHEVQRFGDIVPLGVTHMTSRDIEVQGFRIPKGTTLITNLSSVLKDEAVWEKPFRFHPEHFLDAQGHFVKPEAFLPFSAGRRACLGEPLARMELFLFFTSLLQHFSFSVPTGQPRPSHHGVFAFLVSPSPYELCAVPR

[2] = Oral PK and bioavailability of micronized Compound 2 suspension; type: in vivo, Sprague-Dawley rats
Description: Additional studies were conducted with micronized Compound 2 in rat, dogs (beagles), and cynomolgus monkeys. Animals received a 10 mg/kg dose oral dose of compound formulated as a suspension in 0.5% methyl cellulose in water for injection at a target concentration of 1 mg/mL, and administered a dose volume of 10 mL/kg by oral gavage in rats or fasted dogs and via oral delivery in fasted cynomolgus monkeys. The % F for the rats in these studies was 85%, 36% for the dogs, and 19% for the monkeys. FIG. 11 depicts the pharmacokinetic profile for these species.
Several in vivo studies were performed to characterize the bioavailability of Compound 2. In Sprague-Dawley rats, a single oral dose of 10 mg/kg to 1000 mg/kg of Compound 2 were compared in a series of experiments. Compound 2 used in these studies was recrystallized from ethanol and micronized.

CYP3A4 = CYP3A4 (Homo sapiens, UniProt P08684); test: CYP450 inhibition at 10 μM; type: biochemical
Chain of CYP3A4 (P08684 whole entry): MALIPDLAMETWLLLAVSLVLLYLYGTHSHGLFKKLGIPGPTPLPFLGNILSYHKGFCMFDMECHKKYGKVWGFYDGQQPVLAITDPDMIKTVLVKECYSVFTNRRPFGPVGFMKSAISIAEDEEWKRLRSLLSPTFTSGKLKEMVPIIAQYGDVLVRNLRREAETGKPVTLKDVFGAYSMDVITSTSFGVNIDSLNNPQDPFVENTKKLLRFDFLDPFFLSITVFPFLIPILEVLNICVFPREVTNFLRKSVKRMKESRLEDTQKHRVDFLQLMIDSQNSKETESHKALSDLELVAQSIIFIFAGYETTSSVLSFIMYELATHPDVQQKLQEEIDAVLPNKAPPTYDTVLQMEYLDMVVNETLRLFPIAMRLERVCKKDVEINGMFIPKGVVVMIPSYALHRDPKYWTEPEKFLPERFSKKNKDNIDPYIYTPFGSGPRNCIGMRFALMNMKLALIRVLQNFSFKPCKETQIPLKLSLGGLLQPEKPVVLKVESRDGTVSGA

[3] = Solubility in fasted-state simulated intestinal fluid (FaSSIF); type: physicochemical; details: thermodynamic from solid, pH 6.5, 25° C., read-out: Solubility in the FaSSIF model
Description: Solubility was also determined in a fasted-state simulated intestinal fluid (FaSSIF) assay. Briefly, Compound 2 was added to the FaSSIF medium (bile salts, NaOH (0.420 g), NaH2PO4 (3.438 g), NaCl (6.186 g), pH to 6.5, at 25° C., and brought to a 1 L volume) agitated for 30 hours and sampled, centrifuged, and analyzed by UPLC. Solubility in the FaSSIF model was determined to be 1.19 mg/ml.

[4] = tested on: allergic sheep challenged with Ascaris suum; test: Sheep model of allergic bronchoconstriction and airway hyperresponsiveness; type: in vivo
Description: Compound 2 was also tested in the sheep model of allergic bronchoconstriction and airway hyperresponsiveness according to the methods disclosed in Abraham, W. M Palm Pharmacol Ther (2008) 21:743-754. Allergic sheep challenged with Ascaris suum show a substantial, biphasic increase in pulmonary resistance (RL). The first four hours are considered the early asthmatic response (EAR); the next four hours (hours 4-8) are considered to be the late asthmatic response (LAR). To assess airway responsiveness (AHR), the cumulative carbachol dose in breath units that increased pulmonary resistance 400% over the post-buffer value (PC 400) was calculated from the dose response curve. One breath unit was defined as one breath of a 1% w/v carbachol solution. A pre-challenge PC 400 was obtained 1-3 days before the start of dosing.
Compound 2 was formulated as a micronized powder suspended in 0.5% methylcellulose at a concentration of 6 mg/ml and administered orally at a dose of 30 mg/kg once a day for 4 days, at the same approximate time each day. Sheep were given 30 mg/kg Compound 2 orally daily four days. Two hours after the final dose of Compound 2, the sheep were subjected to an allergen (Ascaris) challenge. Each sheep was restrained in a prone position and its head was immobilized prior to topical anesthesia of the nasal passages. A balloon catheter was advanced through one nostril into the lower esophagus. Each sheep was intubated with a cuffed endotracheal tube through the other nostril. Tracheal and pleural pressures were determined using the endotracheal tube and balloon catheter, respectively. The trans-pulmonary pressure, i.e., the difference between the tracheal and pleural pressures, was measured using a differential pressure transducer catheter system. RL was determined by connecting the distal end of the endotracheal tube to a pneumotachograph. Data were collected from five to ten breaths to a computer and used to calculate RL. Data from the same sheep challenged with Ascaris prior to the initiation of Compound 2 treatment were used to establish baseline values. Monitoring conditions for the control and drug trials were identical.
On the day of challenge and two hours after the final dose of Compound 2, an aerosol of Ascaris suum (82,000 protein nitrogen units/mL) was generated using a nebulizer and delivered to the sheep using a Harvard respirator. RL was determined one hour prior to challenge, immediately following Ascaris challenge, and hourly thereafter for eight hours. Challenge to 4 hours is considered the EAR while 4 to 8 hours is considered the LAR.
Sheep were also challenged with aerosolized carbachol, a cholinergic agonist that has a negative impact on AHR. […]

[5] = Plasma levels in CFA cold hypersensitivity study; type: in vivo, rat
Source text: Table 16 summarizes the average plasma levels of Compound 2 and Compound A. Approximately dose proportional exposures of Compound 2 were observed throughout the dose range tested. Decreased plasma binding of Compound 2 indicates an improved bioavailability of Compound 2 to the subjects over Compound A.

[6] = 30 mg/kg orally once a day for 4 days

- solubility at 30 h [1]: 200 to 1300 µg/mL (≈ 367 to 2390 µM)
- inhibition at 10 µM (CYP2D6): 9.5%
- Exposures based on AUC and Cmax versus dose ([2]; Sprague-Dawley rats, single oral dose 10 mg/kg to 1000 mg/kg): increased with doses up to 1000 mg/kg
- bioavailability ([2]; Sprague-Dawley, rat, plasma, rats, 10 mg/kg oral, micronized suspension in 0.5% methyl cellulose): 85%
- inhibition at 10 µM (CYP3A4; probe Midazolam, 3A4, substrate Midazolam): 0%
- inhibition at 10 µM (CYP3A4; probe Testosterone, 3A4, substrate Testosterone): 2.8%
- solubility at 30 h [3]: 1190 µg/mL (≈ 2190 µM)
- PLASMA ([5]; 0.3 mg/kg PO): 70 ± 11 ng/mL
- PLASMA ([5]; 1 mg/kg PO): 265 ± 56 ng/mL
- PLASMA ([5]; 3 mg/kg PO): 800 ± 160 ng/mL
- PLASMA ([5]; 10 mg/kg PO): 2780 ± 425 ng/mL
SMILES: C[C@@H](C(=O)Nc1ccnc(-c2cnc(N3CCC[C@H]3C(F)(F)F)nc2)n1)n1cnc2c1c(=O)n(C)c(=O)n2C [Compound 2, (S)-2-(1,3-dimethyl-2,6-dioxo-2,3-dihydro-1H-purin-7(6H)-yl)-N-(2′-((S)-2-(trifluoromethyl)pyrrolidin-1-yl)-[2,5′-bipyrimidin]-4-yl)propanamide]
- peak early airway responses [4, 6]: did not affect the peak early airway responses
- protection of late airway responses [4, 6]: 85%
- airway hyperresponsiveness (PC400) ([4]; 30 mg/kg orally, carbachol challenge 24 hours after final dose): reduced the airway hyperresponsiveness to levels similar to those observed in sheep that were not challenged with Ascaris suum
- average LAR (increase in pulmonary resistance) ([4]; treatment trial, 30 mg/kg orally once a day for 4 days): 19±2.3%
